# Literature values, collected in article PMC6647941 (ACS Omega, 2019).
# Conditions: dopamine transporter tracer ref 12
structure (smiles),measurement,value
CN1[C@H]2CC[C@@H]1[C@@H](CN(CC[S-])CC[N-]CC[S-])[C@@H](c1ccc(Cl)cc1)C2.[O]=[99Tc+4] [^99mTc-TRODAT-1],brain uptake,0.40 % ID/g
